Article PMC10386772, “Novel covalent CDK7 inhibitor potently induces apoptosis in acute myeloid leukemia and synergizes with Venetoclax” (Journal of Experimental & Clinical Cancer Research : CR, 2023)

Target: CDK7 (Homo sapiens, UniProt P50613)
Assay: LANCE TR-FRET in vitro kinase assay (U-Light-MBP peptide, […] ATP, […] min; […] at […] min, […] at […] min); bioTHZ1 competition pull-down target occupancy in MOLM13 cells
Assay type: biochemical

Sequence of CDK7 (P50613 2-346): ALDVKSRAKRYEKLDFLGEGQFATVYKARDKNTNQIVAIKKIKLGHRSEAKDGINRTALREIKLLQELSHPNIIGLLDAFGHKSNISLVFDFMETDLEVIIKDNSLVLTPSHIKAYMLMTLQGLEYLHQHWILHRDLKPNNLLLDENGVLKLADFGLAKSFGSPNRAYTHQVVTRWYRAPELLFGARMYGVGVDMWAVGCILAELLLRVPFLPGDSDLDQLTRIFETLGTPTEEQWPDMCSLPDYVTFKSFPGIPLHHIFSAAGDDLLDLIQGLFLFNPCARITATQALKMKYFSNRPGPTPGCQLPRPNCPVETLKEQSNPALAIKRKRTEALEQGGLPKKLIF

For XL102, the IC50 was 0.9 nM.
